From the NIST ThermoML archive (doi:10.1021/je0501639)
Several values for one entry are separate records, joined by “and”; a condition that tells them apart may be missing. Identical values can stand only once.

Tests used:
[1] = refractive index (Na D-line) (dimensionless); conditions: 101.33 kPa, Liquid, Standard Abbe refractometry
[2] = 100.8 kPa, Liquid
[3] = xn = mol fraction of the nth substance listed; conditions: 100.8 kPa, Liquid
[4] = refractive index (Na D-line) (dimensionless); xn = mol fraction of the nth substance listed; conditions: 100.8 kPa, Liquid, Standard Abbe refractometry

CC(C)CC(C)(C)C [2,2,4-trimethylpentane]
Conditions	mass density, 298.15 K [kg/m3]	mass density, 308.15 K [kg/m3]	mass density, 318.15 K [kg/m3]	refractive index, 298.15 K	refractive index, 308.15 K	refractive index, 318.15 K	viscosity, 298.15 K	viscosity, 308.15 K [mPa·s]	viscosity, 318.15 K [mPa·s]
[1]	–	–	–	1.38898	1.38398	1.37898	–	–	–
[2]	687.89	679.55	671.1	–	–	–	0.474 mPa·s and 0.475 mPa·s	0.425	0.38

CCO [ethanol] + CC(C)CC(C)(C)C
x1 = 1
Conditions	mass density, 298.15 K [kg/m3]	mass density, 308.15 K [kg/m3]	mass density, 318.15 K [kg/m3]	refractive index, 298.15 K	refractive index, 308.15 K	refractive index, 318.15 K	viscosity, 298.15 K [mPa·s]	viscosity, 308.15 K [mPa·s]	viscosity, 318.15 K [mPa·s]
[3]	785.1	776.43	767.61	–	–	–	1.085	0.906	0.756
[4]	–	–	–	1.35932	1.35509	1.35095	–	–	–

CC(C)CC(C)(C)C [2,2,4-trimethylpentane] + CC(C)(C)O
x2 = 0
Conditions	mass density, 298.15 K [kg/m3]	mass density, 308.15 K [kg/m3]	mass density, 318.15 K [kg/m3]	refractive index, 298.15 K	refractive index, 308.15 K	refractive index, 318.15 K	viscosity, 298.15 K [mPa·s]	viscosity, 308.15 K [mPa·s]	viscosity, 318.15 K [mPa·s]
[3]	687.89	679.55	671.1	–	–	–	0.475	0.425	0.38
[4]	–	–	–	1.38898	1.38398	1.37898	–	–	–

CCO [ethanol] + CC(C)(C)O
[3], Falling or rolling sphere viscometry, x1 = 1
Conditions	viscosity [mPa·s]
298.15 K	1.085
308.15 K	0.906
318.15 K	0.756

x1 = 1
Conditions	mass density, 298.15 K [kg/m3]	mass density, 308.15 K [kg/m3]	mass density, 318.15 K [kg/m3]	refractive index, 298.15 K	refractive index, 308.15 K	refractive index, 318.15 K
[3]	785.1	776.43	767.61	–	–	–
[4]	–	–	–	1.35932	1.35509	1.351

CC(C)(C)O [2-methylpropan-2-ol]
Conditions	mass density, 298.15 K [kg/m3]	mass density, 308.15 K [kg/m3]	mass density, 318.15 K [kg/m3]	refractive index, 298.15 K	refractive index, 308.15 K	refractive index, 318.15 K
[1]	–	–	–	1.38481	1.3796	1.37416
[2]	780.99	770.7	760.05	–	–	–

[2], Falling or rolling sphere viscometry
Conditions	viscosity [mPa·s]
298.15 K	4.43
308.15 K	2.622
318.15 K	1.708

CCO [ethanol]
Conditions	mass density, 298.15 K [kg/m3]	mass density, 308.15 K [kg/m3]	mass density, 318.15 K [kg/m3]	refractive index, 298.15 K	refractive index, 308.15 K	refractive index, 318.15 K
[1]	–	–	–	1.35932	1.35509	1.351 and 1.35095
[2]	785.1	776.43	767.61	–	–	–

[2], Falling or rolling sphere viscometry
Conditions	viscosity [mPa·s]
298.15 K	1.085
308.15 K	0.906
318.15 K	0.756
